Test results from paper PMC11873646 (Acta Pharmaceutica Sinica. B, 2024).
Like-named read-outs stand apart in the source and are kept apart here.

How the values were obtained:
platelet P2Y12 receptor = platelet P2Y12 receptor (Rattus norvegicus, UniProt Q9EPX4)
[1] = test system: ADP-induced platelet aggregation
[2] = single oral dose 10 mg/kg, 4 h after administration, P < 0.05

Sequence of platelet P2Y12 receptor (Q9EPX4 whole entry): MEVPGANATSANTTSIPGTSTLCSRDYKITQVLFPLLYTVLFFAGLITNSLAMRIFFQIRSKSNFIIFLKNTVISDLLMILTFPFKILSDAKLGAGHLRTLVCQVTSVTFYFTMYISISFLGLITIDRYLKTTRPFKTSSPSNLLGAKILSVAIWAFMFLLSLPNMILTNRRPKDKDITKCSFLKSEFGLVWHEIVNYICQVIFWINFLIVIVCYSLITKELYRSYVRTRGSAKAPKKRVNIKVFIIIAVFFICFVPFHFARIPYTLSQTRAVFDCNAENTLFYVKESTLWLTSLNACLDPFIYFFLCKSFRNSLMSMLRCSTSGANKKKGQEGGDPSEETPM

change in P2Y12 occupancy between D1H4 and D7H4 (platelet P2Y12 receptor; 3 mg/kg oral for 7 consecutive days, male SD rats, P < 0.01): gradual and significant increase | decrease in P2Y12 occupancy in T2DM rats vs control rats (platelet P2Y12 receptor; single oral dose 10 mg/kg, 1 h post-administration, P < 0.05): 50.7% | decrease in P2Y12 occupancy in T2DM rats vs control rats (platelet P2Y12 receptor; single oral dose 10 mg/kg, 4 h post-administration, P < 0.001): 64.4% | time of maximal P2Y12 occupancy (platelet P2Y12 receptor; single oral dose 10 mg/kg, male SD rats, post-administration): 4 h
SMILES: COC(=O)[C@H](c1ccccc1Cl)N1CCc2sccc2C1 [Clop, Clopidogrel]
mean IPA ([1]; 3 mg/kg repeated oral dose group, male SD rats, 5 umol/L ADP): 14.0 ± 12.5% | mean IPA ([1]; 30 mg/kg repeated oral dose group, male SD rats, 5 umol/L ADP): 59.6 ± 10.1% | time for platelet activity to recover after cessation of administration ([1]; 3, 10 and 30 mg/kg for 7 days, all three dose groups, male SD rats): five | decrease in IPA vs Clop alone ([1]; co-administration 10 mg/kg Clop + 10 mg/kg omeprazole, after 7 days, P < 0.01): 57.3% | increase in MPA vs Clop alone ([1]; co-administration 10 mg/kg Clop + 10 mg/kg omeprazole, after 7 days, P < 0.05): 21.1% | decrease in IPA in T2DM rats vs control rats [1, 2]: 48.3% | increase in MPA in T2DM rats vs control rats [1, 2]: 33.2% | time of peak maximal inhibitory effect on platelet aggregation (MPA, IPA) ([1]; single oral dose 10 mg/kg, male SD rats, post-administration, 5 umol/L ADP): 4 h
